Target: T1, Apaf-1 (Homo sapiens, UniProt O14727)
T1 sequence (O14727 1-1248): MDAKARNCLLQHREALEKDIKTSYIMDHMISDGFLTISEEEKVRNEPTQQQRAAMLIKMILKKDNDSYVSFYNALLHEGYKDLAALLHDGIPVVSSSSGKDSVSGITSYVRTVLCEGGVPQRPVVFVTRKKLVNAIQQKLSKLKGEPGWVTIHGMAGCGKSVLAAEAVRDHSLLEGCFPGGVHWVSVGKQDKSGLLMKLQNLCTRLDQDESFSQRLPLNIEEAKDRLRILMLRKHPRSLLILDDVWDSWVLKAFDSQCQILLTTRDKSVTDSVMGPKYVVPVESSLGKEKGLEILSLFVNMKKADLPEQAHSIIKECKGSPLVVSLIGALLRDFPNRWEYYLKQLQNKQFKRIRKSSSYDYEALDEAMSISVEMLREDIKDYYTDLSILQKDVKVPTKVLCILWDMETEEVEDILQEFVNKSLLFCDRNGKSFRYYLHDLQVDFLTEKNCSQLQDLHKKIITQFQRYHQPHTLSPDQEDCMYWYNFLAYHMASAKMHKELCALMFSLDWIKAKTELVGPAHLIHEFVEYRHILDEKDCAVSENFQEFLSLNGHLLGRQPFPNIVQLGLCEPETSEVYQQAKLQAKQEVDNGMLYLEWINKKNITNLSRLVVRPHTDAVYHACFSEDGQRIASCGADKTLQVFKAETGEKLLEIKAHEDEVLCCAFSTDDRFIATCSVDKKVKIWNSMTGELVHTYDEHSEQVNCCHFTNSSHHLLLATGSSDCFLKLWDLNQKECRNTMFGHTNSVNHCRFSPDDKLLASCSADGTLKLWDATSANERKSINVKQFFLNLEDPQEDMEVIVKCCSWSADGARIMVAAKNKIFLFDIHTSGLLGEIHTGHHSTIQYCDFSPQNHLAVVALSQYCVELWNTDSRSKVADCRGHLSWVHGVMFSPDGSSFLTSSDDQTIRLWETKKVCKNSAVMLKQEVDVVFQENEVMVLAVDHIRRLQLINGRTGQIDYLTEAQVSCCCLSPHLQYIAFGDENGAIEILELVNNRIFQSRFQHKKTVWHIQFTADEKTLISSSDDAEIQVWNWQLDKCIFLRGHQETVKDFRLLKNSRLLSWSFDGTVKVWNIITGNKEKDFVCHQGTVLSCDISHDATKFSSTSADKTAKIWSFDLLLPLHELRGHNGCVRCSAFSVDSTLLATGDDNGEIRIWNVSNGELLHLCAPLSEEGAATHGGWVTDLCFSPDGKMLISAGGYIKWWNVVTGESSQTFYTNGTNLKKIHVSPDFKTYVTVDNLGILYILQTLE
T1 sequence (P06454 2-111 partner): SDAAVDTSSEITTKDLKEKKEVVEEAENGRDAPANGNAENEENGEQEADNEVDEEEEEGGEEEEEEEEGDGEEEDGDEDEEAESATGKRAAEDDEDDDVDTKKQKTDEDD
Experiment: ELISA and FLAG-IP of recombinant Apaf-1/ProT interaction blocked by BETT
Assay type: biochemical

EC50: ~50 µM
Structure (SMILES): Sc1nnc(-c2cc3ccccc3o2)n1-c1ccccc1 [BETT, 5-(2-Benzofuryl)-4-phenyl-1,2,4-triazole-3-thiol]
